Where “and” joins values, the source holds several entries; their conditions need not be identical. Equal values may be shown once. Inconclusive results and toxic doses are left out. No stated cut-off is given here; in the data, active means T/C of 150% or more; inactive means T/C below 125%.
Test system: L1210 leukemia ip in BDF1 mice, survival T/C
Experiment: NCI In Vivo Anticancer Drug Screen. Data for tumor model L1210 Leukemia (intraperitoneal) in B6D2F1 (BDF1) mice
Conditions: endpoint: mean survival time, higher = longer survival
How it was run: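 Ratio derived from survival: compound-dosed mice over vehicle-dosed mice, all bearing a transplantable tumor.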

[1] = dose: 100.0 mg/kg/injection, schedule: Q01DX009 (ip), vehicle: saline with Tween-80
[2] = dose: 100.0 mg/kg/injection, schedule: Q04DX003 (ip), vehicle: saline with Tween-80
[3] = dose: 200.0 mg/kg/injection, schedule: Q01DX009 (ip), vehicle: saline with Tween-80
[4] = dose: 200.0 mg/kg/injection, schedule: Q04DX003 (ip), vehicle: saline with Tween-80
[5] = dose: 400.0 mg/kg/injection, schedule: Q04DX003 (ip), vehicle: saline with Tween-80
[6] = dose: 25.0 mg/kg/injection, schedule: Q04DX002 (ip), vehicle: Klucel (hydroxypropylcellulose) (HPC)
[7] = dose: 50.0 mg/kg/injection, schedule: Q04DX002 (ip), vehicle: Klucel (hydroxypropylcellulose) (HPC)
[8] = dose: 100.0 mg/kg/injection, schedule: Q04DX002 (ip), vehicle: Klucel (hydroxypropylcellulose) (HPC)
[9] = dose: 200.0 mg/kg/injection, schedule: Q04DX002 (ip), vehicle: Klucel (hydroxypropylcellulose) (HPC)
[10] = dose: 400.0 mg/kg/injection, schedule: Q04DX002 (ip), vehicle: Klucel (hydroxypropylcellulose) (HPC)
[11] = dose: 100.0 mg/kg/injection, schedule: Q01DX001 (ip), vehicle: saline
[12] = dose: 200.0 mg/kg/injection, schedule: Q01DX001 (ip), vehicle: saline
[13] = dose: 400.0 mg/kg/injection, schedule: Q01DX001 (ip), vehicle: saline
[14] = dose: 5.0 mg/kg/injection, schedule: Q01DX001 (ip), vehicle: saline
[15] = dose: 20.0 mg/kg/injection, schedule: Q01DX001 (ip), vehicle: saline
[16] = dose: 100.0 mg/kg/injection, schedule: Q01DX009 (ip), vehicle: Klucel (hydroxypropylcellulose) (HPC)
[17] = dose: 200.0 mg/kg/injection, schedule: Q01DX009 (ip), vehicle: Klucel (hydroxypropylcellulose) (HPC)
[18] = dose: 400.0 mg/kg/injection, schedule: Q01DX009 (ip), vehicle: Klucel (hydroxypropylcellulose) (HPC)
[19] = dose: 100.0 mg/kg/injection, schedule: Q04DX003 (ip), vehicle: Klucel (hydroxypropylcellulose) (HPC)
[20] = dose: 200.0 mg/kg/injection, schedule: Q04DX003 (ip), vehicle: Klucel (hydroxypropylcellulose) (HPC)
[21] = dose: 400.0 mg/kg/injection, schedule: Q04DX003 (ip), vehicle: Klucel (hydroxypropylcellulose) (HPC)

Measured: T/C

CC(C)=CCC/C(C)=C/CN1C(=O)c2ccccc2C1=O
inactive: [1] 103 % of control | [2] 93 % of control | [3] 106 % of control | [4] 102 % of control | dose: 400.0 mg/kg/injection, schedule: Q01DX009 (ip), vehicle: saline with Tween-80 95 % of control | [5] 96 % of control

CC(=O)Oc1ccc([N+](=O)[O-])cc1
inactive: [6] 102 % of control | [7] 89 % of control | [8] 90 % of control | [9] 92 % of control and 96 % of control

O=C(O)CC1CCCCC1CC(=O)O (centres undefined)
inactive: [6] 101 % of control | [7] 98 % of control | [8] 92 % of control | [9] 95 % of control and 97 % of control | [10] 107 % of control

CCOP(=S)(Nc1cccc(C(F)(F)F)c1)OCC
inactive: [11] 102 % of control | [12] 100 % of control | [13] 96 % of control

Nc1cccc(CC(=O)c2ccccc2)n1
inactive: [14] 97 % of control | dose: 10.0 mg/kg/injection, schedule: Q01DX001 (ip), vehicle: saline 106 % of control | [15] 100 % of control | dose: 40.0 mg/kg/injection, schedule: Q01DX001 (ip), vehicle: saline 97 % of control | dose: 80.0 mg/kg/injection, schedule: Q01DX001 (ip), vehicle: saline 100 % of control | [12] 106 % of control

O=C(Nc1ccccc1F)OCCOc1ccccc1
inactive: dose: 100.0 mg/kg/injection, schedule: Q01DX001 (ip), vehicle: Klucel (hydroxypropylcellulose) (HPC) 97 % of control | [16] 95 % of control and 97 % of control | [8] 98 % of control and 115 % of control | dose: 200.0 mg/kg/injection, schedule: Q01DX001 (ip), vehicle: Klucel (hydroxypropylcellulose) (HPC) 97 % of control | [17] 95 % of control and 102 % of control | [9] 106 % of control and 115 % of control | dose: 400.0 mg/kg/injection, schedule: Q01DX001 (ip), vehicle: Klucel (hydroxypropylcellulose) (HPC) 94 % of control | [18] 95 % of control and 103 % of control | [10] 100 % of control and 103 % of control

c1ccc(COCC[P+](c2ccccc2)(c2ccccc2)c2ccccc2)cc1
inactive: [14] 94 % of control | [15] 87 % of control

O=C1OCC2Cc3cc4c(cc3C(c3ccc5c(c3)OCO5)=C12)OCO4 (centres undefined)
inactive: [11] 98 % of control | [12] 109 % of control | [13] 95 % of control

CCP1CCC(=NNC(N)=S)CC1 (centres undefined)
inactive: dose: 12.5 mg/kg/injection, schedule: Q04DX002 (ip), vehicle: saline with Tween-80 95 % of control | dose: 25.0 mg/kg/injection, schedule: Q04DX002 (ip), vehicle: saline with Tween-80 95 % of control | dose: 50.0 mg/kg/injection, schedule: Q04DX002 (ip), vehicle: saline with Tween-80 93 % of control

Nc1ccccc1C(=O)OCCc1ccccc1
inactive: [16] 93 % of control | [19] 94 % of control | [17] 93 % of control | [20] 95 % of control | [18] 95 % of control | [21] 92 % of control

O=[N+]([O-])c1ccc2c(c1)=N/C(=N\c1nc(O)c(O)[nH]1)N=2
inactive: [19] 101 % of control | [20] 98 % of control | [21] 104 % of control

C=CCc1cc(CNC(C)C)c(O)c(OC)c1
inactive: dose: 25.0 mg/kg/injection, schedule: Q04DX003 (ip), vehicle: Klucel (hydroxypropylcellulose) (HPC) 96 % of control | dose: 50.0 mg/kg/injection, schedule: Q04DX003 (ip), vehicle: Klucel (hydroxypropylcellulose) (HPC) 88 % of control | [19] 101 % of control and 92 % of control

CCCCOP(OCCCC)Oc1ccccc1
inactive: dose: 50.0 mg/kg/injection, schedule: Q01DX009 (ip), vehicle: saline with Tween-80 89 % of control | [1] 89 % of control | [2] 97 % of control | [3] 100 % of control | [4] 96 % of control | [5] 103 % of control

CNC(=O)C(c1ccccc1)C(F)(F)F (centres undefined)
inactive: dose: 100.0 mg/kg/injection, schedule: Q01DX001 (ip), vehicle: saline with Tween-80 97 % of control | dose: 200.0 mg/kg/injection, schedule: Q01DX001 (ip), vehicle: saline with Tween-80 109 % of control | dose: 400.0 mg/kg/injection, schedule: Q01DX001 (ip), vehicle: saline with Tween-80 105 % of control

O=C(O)CSC(=S)SCC(=O)O
inactive: [16] 100 % of control | [19] 100 % of control | [17] 97 % of control | [20] 105 % of control | [21] 101 % of control

COc1ccc2c(O)c(Oc3ccccc3)c(=O)oc2c1
inactive: dose: 100.0 mg/kg/injection, schedule: Q04DX003 (ip), vehicle: saline 87 % of control | dose: 200.0 mg/kg/injection, schedule: Q04DX003 (ip), vehicle: saline 97 % of control

— PubChem BioAssay AID248 (DTP/NCI, 2004)
